Reference: article PMC8222713, “Variation of Two S3b Residues in KV4.1–4.3 Channels Underlies Their Different Modulations by Spider Toxin κ-LhTx-1” (Frontiers in Pharmacology, 2021)
Where a SMILES comes first, the peptide text is derived from it. Bridges are numbered along the chain shown (N, C = ends).

What was measured:
KV1.4 channel (rKV1.4) = test: Whole-cell patch clamp selectivity, KV1.4; format: cell-based, rat; details: KV1.4, 10 µM, n = 5
Experimental: (§1) The cDNA of hKV1.1, hKV1.3, rKV1.4, hKV1.5, rKV2.1, hKV3.1–3.4, mKV4.1, rKV4.2, and rKV4.3 were subcloned in the eukaryotic expression vector pCDNA3.1 or pCMV-blank. Channel mutants were made by a site-directed mutation method. Briefly, a pair of oppositely directed primers with 15 bp overlap at their 5′ ends and the designed mutation site were used to amplify the parental channel plasmid, then the PCR mix was treated with DpnI to remove the template. 10 μL digestion mix was directly used to transform 100 μL DH5α chemical competent cells. The correct mutation made by this procedure was finally confirmed by DNA sequencing. […] 4–6 h after transfection, cells were seeded onto poly-lysine (PLL) coated coverslips, and 24–36 h later, transfected cells were ready for patch-clamp analysis. […]
(§2) Whole-cell patch clamp recording was performed in an electrophysiology platform equipped with MultiClamp 700B amplifier and Axon Digidata 1550 AD/DA convertor (Axon Instruments, Irvine, CA, United States). […] The whole cell conductance (G) at each depolarizing voltage (V) was determined using the equation: G = I/(V−Vrev), where I and Vrev represents the current amplitude and the reversal potential, respectively. In the present study, Vrev for K^+ current is determined to be −85.61 mV using the Nernst equation. […] Gating currents of KV4.1–4.3 channels were measured as previously reported ([Tilley et al., 2019]). […]

KV1.5 channel (hKV1.5) = test: Whole-cell patch clamp selectivity, KV1.5; format: cell-based, human; details: KV1.5, 10 µM, n = 5
Experimental: as §1, §2

[1] = system: KV4.1/280VMTN chimeric channel; test: Whole-cell patch clamp, KV4.1/280VMTN chimera in CHO-K1 cells; format: cell-based, mouse; details: mean ± SEM
Experimental: (§3) The cDNA of hKV1.1, hKV1.3, rKV1.4, hKV1.5, rKV2.1, hKV3.1–3.4, mKV4.1, rKV4.2, and rKV4.3 were subcloned in the eukaryotic expression vector pCDNA3.1 or pCMV-blank. Channel mutants were made by a site-directed mutation method. Briefly, a pair of oppositely directed primers with 15 bp overlap at their 5′ ends and the designed mutation site were used to amplify the parental channel plasmid, then the PCR mix was treated with DpnI to remove the template. 10 μL digestion mix was directly used to transform 100 μL DH5α chemical competent cells. The correct mutation made by this procedure was finally confirmed by DNA sequencing. CHO-K1 cells (ATCC® CCL-61™) were grown in DMEM-F12 mixed medium (1:1) supplemented with 10% FBS and maintained in standard conditions (saturated humidity, 37°C, 5% CO2). Channel plasmid was co-transfected with pEGFP-N1 (encodes the green fluoresence protein) into CHO-K1 cells using lipofectamine 2000 following the manufacturer’s instructions. 4–6 h after transfection, cells were seeded onto poly-lysine (PLL) coated coverslips, and 24–36 h later, transfected cells were ready for patch-clamp analysis. It should be note that KV4.2 and its mutants were also co-expressed with hKChIP1 to promote their functional expressions.
(§4) Whole-cell patch clamp recording was performed in an electrophysiology platform equipped with MultiClamp 700B amplifier and Axon Digidata 1550 AD/DA convertor (Axon Instruments, Irvine, CA, United States). Data were acquired using the pClamp software (Axon Instruments, Irvine, CA, United States). All experiments were performed at room temperature. The bath solution contains (in mM): 140 NaCl, 5 KCl, 1 MgCl2, 2 CaCl2, 10 glucose, and 10 HEPES (pH = 7.3). The pipette solution contains (in mM): 140 KCl, 2.5 MgCl2, 11 EGTA, and 10 HEPES (pH = 7.3). Series resistance was kept below 10 MΩ and compensated to 80%. The concentration–response curves were fitted by a Hill logistic equation to estimate the potency (IC50) of the toxin. The whole cell conductance (G) at each depolarizing voltage (V) was determined using the equation: G = I/(V−Vrev), where I and Vrev represents the current amplitude and the reversal potential, respectively. In the present study, Vrev for K^+ current is determined to be −85.61 mV using the Nernst equation. G-V curve was obtained by plotting the normalized G as a function of V and fitted by the Boltzmann equation: y = 1/{1 + exp [(Va−V)/K]}, in which Va, V, and K represents half-maximum activation voltage, test voltage and slope factor, respectively. The steady-state fast inactivation of KV4 channels was measured using a classical two-pulses protocol: cell was held at −120 mV, and a train of conditional voltages (−120–40 mV, in 10 mV increment, 1,000 ms) were applied to induce channel inactivation, followed by a +60 mV test pulse (300 ms) to assess the proportion of non-inactivated channels; the sweep interval was set to 10 s. Currents at the test pulse (I) were normalized to the maximum value (Imax) and plotted as a function of the conditional voltage (V), the curve was fitted by the Boltzmann equation: I/Imax = A + (1−A)/{1 + exp [(V−Vh)/K]}, where Vh is the half-maximum inactivation voltage, A represents the minimum channel availability, and K is the slope factor. Gating currents of KV4.1–4.3 channels were measured as previously reported ([Tilley et al., 2019]). Briefly, the ionic pore currents were abolished by replacing K^+ with NMDG^+ in the pipette solution, and 10 µM Cs^+ was present in the bath solution to occupy the selectivity filter of KV channels to prevent decay of the gating currents during recording.
(§5) Data were presented as MEAN ± SEM, n represents the number of separate experimental cells. Data were analyzed using the software Clampfit 10.5 (Axon Instruments, Irvine, CA, United States), Graphpad Prism 5.01 (GraphPad Software, La Jolla, CA, United States) and Excel 2010 (Microsoft Corporation, Redmond, WA, United States). […]

KV4.3/N278K mutant = test: Whole-cell patch clamp, KV4.3/N278K in CHO-K1 cells; format: cell-based, rat
Experimental: as §3, §4, §5

KV1.1 channel (hKV1.1) = test: Whole-cell patch clamp selectivity, KV1.1; format: cell-based, human; details: KV1.1, 10 µM, n = 5
Experimental: as §1, §2

[2] = 10 μM κ-LhTx-1, two-pulse protocol, n = 5
[3] = 10 μM κ-LhTx-1, G-V, mean ± SEM, n = 6
[4] = 10 μM κ-LhTx-1, two-pulse protocol, mean ± SEM, n = 5

`CC[C@H](C)[C@@H]1NC(=O)[C@H](CCC(N)=O)NC(=O)[C@@H]2CSSC[C@@H]3NC(=O)[C@H](CC(C)C)NC(=O)[C@H](CC(N)=O)NC(=O)[C@H](CCSC)NC(=O)[C@H](Cc4c[nH]c5ccccc45)NC(=O)[C@H](CO)NC(=O)[C@H](C)NC(=O)[C@@H](NC(=O)[C@H](CCC(=O)O)NC(=O)[C@H](CCC(N)=O)NC(=O)[C@H](C)NC(=O)[C@H](CC(=O)O)NC(=O)[C@@H](N)CCC(=O)O)CSSC[C@H](NC(=O)[C@H](CSSC[C@@H](C(=O)N[C@@H](CCCCN)C(=O)N[C@@H](Cc4ccc(O)cc4)C(=O)N[C@@H](CCCCN)C(=O)N[C@@H](CC(C)C)C(N)=O)NC(=O)[C@H](Cc4c[nH]c5ccccc45)NC1=O)NC(=O)[C@H](CCCCN)NC(=O)[C@H](CCCCN)NC(=O)[C@H](CCC(=O)O)NC(=O)CNC3=O)C(=O)N[C@@H](CCC(=O)O)C(=O)NCC(=O)N[C@@H](Cc1ccc(O)cc1)C(=O)N[C@@H](C(C)C)C(=O)N2` [κ-LhTx-1] (H-EDAQECASWMNLCGEKKCCEGYVCQIWCKYKL-NH2; disulfide 6-19, 13-24, 18-28 (inferred); N-terminus and C-terminus assumed) was tested, and the effect on currents (KV1.4 channel (rKV1.4)) was “did not remarkably affect the currents”, the effect on currents (KV1.5 channel (hKV1.5)) was “did not remarkably affect the currents” and the “Va (steady-state activation)” value ([1]; 10 μM κ-LhTx-1, G-V, n = 5) was 58.61 ± 1.63 mV. For the same molecule, the “k, slope factor (steady-state activation)” value ([1]; 10 μM κ-LhTx-1, G-V, n = 5) was 19.00 ± 0.81 mV, the “Vh (steady-state inactivation)” value [1, 2] was -44.55 ± 2.07 mV and the “k, slope factor (steady-state inactivation)” value [1, 2] was 9.86 ± 1.33 mV. For the same molecule, the “∆Va (steady-state activation)” value ([1]; Va shift by 10 μM κ-LhTx-1 vs control) was 61.44 ± 1.98 mV, the “∆Vh (steady-state inactivation)” value ([1]; Vh shift by 10 μM κ-LhTx-1 vs control) was 13.52 ± 2.24 mV and the “inhi%(min)” value ([1]; inhibition ratio at +100 mV, 10 μM) was −2.82 ± 3.37%. The “Va (steady-state activation)” value (KV4.3/N278K mutant; [3]) was 68.62 ± 1.73 mV, the “k, slope factor (steady-state activation)” value (KV4.3/N278K mutant; [3]) was 18.03 ± 0.87 mV and the “Vh (steady-state inactivation)” value (KV4.3/N278K mutant; [4]) was -17.01 ± 1.57 mV. The “k, slope factor (steady-state inactivation)” value (KV4.3/N278K mutant; [4]) was 10.75 ± 0.63 mV, the “voltage-dependence of inhibition vs parental KV4.3” value (KV4.3/N278K mutant; 10 μM, still greater than in KV4.1) was “much less voltage-dependence” and the “∆Va (steady-state activation)” value (KV4.3/N278K mutant; Va shift by 10 μM κ-LhTx-1 vs control, mean ± SEM) was 59.97 ± 2.64 mV. The “∆Vh (steady-state inactivation)” value (KV4.3/N278K mutant; Vh shift by 10 μM κ-LhTx-1 vs control, mean ± SEM) was 30.24 ± 1.80 mV and the effect on currents (KV1.1 channel (hKV1.1)) was “did not remarkably affect the currents”.
